Reference: patent publication US9718760B2, “Plasminogen activator inhibitor-1 inhibitors and methods of use thereof” (THE REGENTS OF THE UNIVERSITY OF MICHIGAN, priority 2012, dated 2017)
pIC50: −log10 of the molar value. Where “and” joins values, the source holds several entries; their conditions need not be identical. Equal entries are not always repeated. Where two headings read alike, the source gives them in different places.

Target: recombinant active human PAI-1 (Homo sapiens (Human), UniProt P05121)
Test: Fluorometric PAI-1/uPA IC50 plate assay at pH 7.4
Assay type: biochemical
Description: To determine the efficacy of various synthesized compounds as PAI-1 inhibitors, a fluorometric plate assay was carried out to measure the half maximal inhibitory concentration (IC50) of these compounds on recombinant active human PAI-1 in vitro. An IC50 is a measure of the effectiveness of a compound in inhibiting biological or biochemical function. Stated another way, IC50 represents the concentration of a drug that is required for 50% inhibition in vitro.
PAI-1 inhibitor compounds were dissolved in DMSO to a final concentration of (10-50 mM), depending upon solubility. Compounds were then diluted in physiologic buffer (40 mM HEPES, 100 mM NaCl, 0.05% Tween-20, pH7.4) containing 10% DMSO and a dilution series (from 0 to 1000 uM depending on solubility) was prepared. 80 μL of compound was added per well to a 96-well black, opaque microplate in duplicate. 10 μL of 20 nM Recombinant active human PAI-1 (Molecular Innovations) in physiologic buffer (40 mM HEPES, 100 mM NaCl, 0.05% Tween-20, 10% DMSO, pH 7.4), or […] physiologic buffer with 10% human plasma, was added and the mixture was agitated for 15 minutes at room temperature. 10 μL of 25 nM uPA (Rheotromb®) was added to each reaction well and the plate was agitated for an additional 30 minutes at room temperature. Tripeptide aminomethylcoumarin Gly-Gly-Arg-AMC (Calbiochem) fluorogenic substrate (100 μL of 100 μM) was then added and residual uPA activity was determined based upon cleavage of this substrate. The rate of AMC release by uPA (fluorescence) was measured at an excitation wavelength of 370 nm and an emission wavelength of 440 nm. Controls included PAI-1 and uPA in the absence of compound and uPA alone. Percent PAI-1 inhibition was calculated using the following formula: [(uPA alone-uPA/PAI-1+ compound)/(uPA alone-PAI-1/uPA)]*100%. The IC50 was calculated using Graphit (IC50 0-100%).

[1] = physiologic buffer (40 mM HEPES, 100 mM NaCl, 0.05% Tween-20, 10% DMSO), read-out: PAI-1/uPA IC50 in buffer
[2] = physiologic buffer with 1.5% BSA (15 mg/mL), read-out: PAI-1/uPA IC50 in 1.5% BSA buffer
[3] = physiologic buffer with 10% human plasma, read-out: PAI-1/uPA IC50 in 10% plasma buffer

Sequence of recombinant active human PAI-1 (P05121 24-402): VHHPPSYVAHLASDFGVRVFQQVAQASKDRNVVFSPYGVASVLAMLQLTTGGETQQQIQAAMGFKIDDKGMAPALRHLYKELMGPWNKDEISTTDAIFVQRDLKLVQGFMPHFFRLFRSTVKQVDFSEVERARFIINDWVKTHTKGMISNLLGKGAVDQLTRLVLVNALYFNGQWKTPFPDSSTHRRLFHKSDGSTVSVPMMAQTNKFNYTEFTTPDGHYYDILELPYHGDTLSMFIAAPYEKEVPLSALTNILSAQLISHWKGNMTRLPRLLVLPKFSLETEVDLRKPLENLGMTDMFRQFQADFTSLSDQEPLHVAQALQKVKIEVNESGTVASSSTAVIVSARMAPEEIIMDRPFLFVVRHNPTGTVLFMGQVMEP

SMILES | pIC50 [1] | pIC50 [2] | pIC50 [3]
O=C1Cc2cc(C(=O)CNCCNCC(=O)c3ccc4c(c3)CC(=O)N4)ccc2N1 [C225, 5,5′-(2,2′-(ethane-1,2-diylbis(azanediyl))bis(acetyl))bis(indolin-2-one)] | 3.79 |  | 
COc1ccc(-c2nc(-c3ccc4c(c3)CC(=O)N4)cs2)cc1OC [C227, 5-(2-(3,4-dimethoxyphenyl)thiazol-4-yl)indolin-2-one] | 3.69 |  | 
O=C1Cc2cc(-c3csc(-c4ccc(O)c(O)c4)n3)ccc2N1 [C228] | 4.83 |  | 
O=C1Cc2cc(S(=O)(=O)NCCc3ccccc3)ccc2N1 [C229, 2-oxo-N-phenethylindoline-5-sulfonamide] | 2.89 |  | 
CCCCCCNC(=O)C(=O)NN [C240] | 2.42 and 2.41 | 2.65 and 2.70 | 2.92
CCCCCNC(=O)C(=O)NN [C241] | 2.71 |  | 
COc1ccc(CCNC(=O)C(=O)NN)cc1OC [C246] | 2.59 |  | 
NNC(=O)C(=O)NCc1ccc(F)cc1 [C248] | 2.92 and 2.88 | 3.19 | 3.32
NNC(=O)C(=O)NCc1ccc(Cl)c(C(F)(F)F)c1 [C251] | 4.16 and 4.12 | 3.96 and 3.91 | 3.97
NNC(=O)C(=O)NCc1ccc(OC(F)(F)F)cc1 [C255] | 2.69 and 2.75 | 3.66 and 3.53 | 3.55
CCOC(=O)C(=O)NCc1ccc(Cl)c(C(F)(F)F)c1 [C256, ethyl 2-((4-chloro-3-(trifluoromethyl)benzyl)amino)-2-oxoacetate] | 2.98 and 2.87 | 3.69 and 3.63 | 3.67
CCOC(=O)C(=O)NCc1ccc(Br)cc1 [C259] | 2.54 and 2.50 | 3.20 and 3.12 | 3.28
NNC(=O)C(=O)NCc1ccc(Br)cc1 [C260] | 3.83 and 3.73 |  | 3.28
NNC(=O)C(=O)NCc1ccc(F)c(C(F)(F)F)c1 [C261] | 3.99 | 4.17 and 4.07 | 4.16
Cc1cc(CNC(=O)C(=O)NN)ccc1F [C262] | 3.77 and 3.73 | 4.20 and 4.08 | 4.07
NNC(=O)C(=O)NCc1ccccc1F [C263] | 2.55 | 2.77 | 2.87
NNC(=O)C(=O)NCc1cccc(F)c1 [C264] | 2.67 | 2.93 | 2.90
CCOC(=O)C(=O)NCc1cccc(Cl)c1 [C265] | 2.40 |  | 
NNC(=O)C(=O)NCc1cccc(Cl)c1 [C266] | 3.25 and 3.26 | 3.90 | 3.66
CCOC(=O)C(=O)NCc1cccc(C(F)(F)F)c1 [C267] | 2.42 |  | 
NNC(=O)C(=O)NCc1cccc(OC(F)(F)F)c1 [C268] | 3.87 | 4.19 | 4.11
COC(=O)CCC(=O)NCc1ccc(F)c(C(F)(F)F)c1 [C276] | 2.84 | 3.37 | 3.32

SMILES | pIC50 [1] | pIC50 [2] | pIC50 [3]
COC(=O)CCC(=O)NCc1ccc(Cl)c(C(F)(F)F)c1 [C277] | 3.12 and 3.14 | 3.78 and 3.80 | 3.83 and 3.85
NNC(=O)CCC(=O)NCc1ccc(Cl)c(C(F)(F)F)c1 [C278] | 3.19 | 3.93 and 3.89 | 3.85
Cc1oncc1C(=O)NCc1ccc(Cl)c(C(F)(F)F)c1 [C279] | 3.27 and 3.23 | 3.26 and 3.30 | 3.17
O=C(NO)C(=O)NCc1ccc(Cl)c(C(F)(F)F)c1 [C280] | 3.68 and 3.69 | 3.78 and 3.80 | 3.77
COc1ccc(CNC(=O)C(=O)NN)c(OC)c1 [C281] | 2.64 |  | 
Cc1cc(Cl)ccc1CNC(=O)C(=O)NN [C282] | 3.65 and 3.66 | 3.79 and 3.81 | 3.92
O=C(NO)NCc1ccc(Cl)c(C(F)(F)F)c1 [C284, 1-(4-chloro-3-(trifluoromethyl)benzyl)-3-hydroxyurea] | 2.61 |  | 
O=C(NCc1ccc(Cl)c(C(F)(F)F)c1)c1n[nH]c(=O)o1 [C285, N-(4-chloro-3-(trifluoromethyl)benzyl)-5-oxo-4,5-dihydro-1,3,4-oxadiazole-2-carboxamide] | 3.37 and 3.41 | 3.58 | 3.51
Cc1cc(C(=O)NCc2ccc(Cl)c(C(F)(F)F)c2)no1 [C286] | 3.24 |  | 
NNC(=O)CCC(=O)NCc1ccc(F)c(C(F)(F)F)c1 [C287] | 2.93 | 3.44 | 3.52
COC(=O)CCC(=O)NCc1cccc(C(F)(F)F)c1 [C288] | 2.54 | 2.97 | 3.12
NNC(=O)CCC(=O)NCc1cccc(C(F)(F)F)c1 [C289] | 2.56 | 2.96 | 3.13
COc1cccc(CNC(=O)C(=O)NN)c1 [C295] | 2.87 | 3.11 | 3.13
NNC(=O)C(=O)NCc1ccc(C(F)(F)F)cc1 [C296] | 3.95 | 4.16 | 4.19
NNC(=O)C(=O)NCc1cccc(C(F)(F)F)c1 [C297] | 3.87 | 3.95 | 4.06
Cc1cc(Cl)ccc1CNC(=O)c1n[nH]c(=O)o1 [C299] | 3.62 | 3.13 | 3.20
Cc1cc(Cl)ccc1CNC(=O)C(=O)NO [C300] | 2.26 |  | 
NNC(=O)C(=O)NCc1cccc(Cl)c1Cl [C301] | 3.76 | 3.89 | 3.97
NNC(=O)C(=O)NCc1cc(F)c(F)c(F)c1 [C304] | 3.79 | 4.05 | 4.13
Cc1ccc(CNC(=O)C(=O)NN)cc1F [C305] | 3.65 | 4.09 | 4.21
Cc1ccc(CNC(=O)c2n[nH]c(=O)o2)cc1F [C306] | 2.94 | 3.39 | 3.39
NNC(=O)C(=O)NCc1ccc(Cl)cc1F [C307] | 3.33 | 4.00 | 4.00

SMILES | pIC50 [1] | pIC50 [2] | pIC50 [3]
O=C(O)C(=O)NCc1ccc(Cl)c(C(F)(F)F)c1 [C309, 2-((4-chloro-3-(trifluoromethyl)benzyl)amino)-2-oxoacetic acid] | 2.92 |  | 
CC(C)=NNC(=O)C(=O)NCc1cc(F)cc(F)c1 [C313] | 2.92 | 3.27 | 3.31
CONC(=O)C(=O)NCc1ccc(Cl)c(C(F)(F)F)c1 [C320, N-(4-chloro-3-(trifluoromethyl)benzyl)-N′-methoxyoxalamide] | 3.48 | 3.29 | 3.16
COc1cc(CNC(=O)C(=O)NN)cc(OC)c1 [C322] | 2.37 |  | 
CON(C)C(=O)C(=O)NCc1ccc(Cl)c(C(F)(F)F)c1 [C328] | 3.15 | 3.46 | 3.50
O=C(NCc1ccc(Cl)c(C(F)(F)F)c1)C(=O)NNS(=O)(=O)c1ccccc1 [C334] | 3.72 |  | 
N#Cc1ccc(CNC(=O)C(=O)NN)cc1 [C336] | 2.26 | 3.05 | 3.07
NNC(=O)C(=O)NCc1cc(C(F)(F)F)cc(C(F)(F)F)c1 [C339] | 3.55 | 3.61 | 3.52
NNC(=O)C(=O)NCc1cc(F)cc(F)c1 [C340] | 3.47 | 3.60 | 3.57
Cc1ccc(F)cc1CNC(=O)C(=O)NN [C341] | 3.05 | 2.84 | 2.73
O=C(CCc1ccc(O)c(O)c1)NCc1cccc(C(F)(F)F)c1 [C344] | 3.00 | 3.08 | 3.06
O=C(CCc1ccc(O)c(O)c1)NCc1ccc(C(F)(F)F)cc1 [C345] | 2.83 | 3.17 | 3.27
O=C(/C=C/c1ccc(O)c(O)c1)NCc1ccc(Cl)c(C(F)(F)F)c1 [C346] | 3.45 |  | 
O=C(Cc1ccc(O)c(O)c1)NCc1ccc(Cl)c(C(F)(F)F)c1 [C347] | 3.05 | 3.51 | 3.53
O=C(NCc1ccc(Cl)c(C(F)(F)F)c1)c1ccc(O)c(O)c1 [C348] | 4.00 | 3.34 | 3.62
O=C(CCc1ccc(O)c(O)c1)NCc1cc(F)c(F)c(F)c1 [C356] | 2.96 | 2.91 | 3.26
O=C(CCc1ccc(O)c(O)c1)NCc1cccc(OC(F)(F)F)c1 [C357] | 2.86 | 2.91 | 3.25
Cc1cc(CNC(=O)CCc2ccc(O)c(O)c2)ccc1F [C358] | 2.82 | 2.91 | 3.21
O=C(CCc1ccc(O)c(O)c1)NCc1ccc(Cl)cc1 [C359] | 2.47 | 2.68 | 3.01
O=C(NCc1ccc(Br)cc1)c1ccc(O)c(O)c1 [C360] | 3.79 | 2.78 | 3.11
